Experimental data reported in patent publication US8008306B2, “Quinoline compounds” (Kowa Company, Ltd., priority 2008, dated 2011).

What was measured:
LXRβ (versus LXRα) = target: T1, LXRβ (versus LXRα) (Homo sapiens, UniProt P55055); conditions: from Hu et al., Bioorg. Med. Chem. Lett., 18, pp. 54-59, 2008; cited from earlier work
T1 sequence (P55055 1-460): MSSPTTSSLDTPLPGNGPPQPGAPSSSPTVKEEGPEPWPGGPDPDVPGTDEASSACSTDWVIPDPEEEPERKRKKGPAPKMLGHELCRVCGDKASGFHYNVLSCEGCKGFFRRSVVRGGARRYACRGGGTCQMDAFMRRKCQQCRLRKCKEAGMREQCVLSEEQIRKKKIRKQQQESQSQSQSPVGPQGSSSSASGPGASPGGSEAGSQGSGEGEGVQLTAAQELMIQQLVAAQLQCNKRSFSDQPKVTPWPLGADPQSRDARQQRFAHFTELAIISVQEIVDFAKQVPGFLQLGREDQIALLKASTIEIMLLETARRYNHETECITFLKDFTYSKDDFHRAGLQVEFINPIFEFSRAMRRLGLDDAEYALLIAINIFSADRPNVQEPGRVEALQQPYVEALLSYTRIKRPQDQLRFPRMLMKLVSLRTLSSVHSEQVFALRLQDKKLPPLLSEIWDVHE

[1] = target: T2, LXRβ/GAL4 hybrid (LBD of human LXRβ), compared with LXRα/GAL4 (Homo sapiens, UniProt P55055); assay: Transactivation assay (GAL4-responsive luciferase reporter); format: cell-based; conditions: CHOK-1 cells stably expressing LXRα/GAL4 or LXRβ/GAL4 and pG5luc; 0.01-10 μM, 24 hours; % eff relative to T0901317 at 10 μM = 100; data in FIGS. only
T2 construct: expressed in transfected cells; host or cells: CHOK-1 cells stably expressing the hybrid and pG5luc
T2 sequence (P55055 222-460 limits assumed): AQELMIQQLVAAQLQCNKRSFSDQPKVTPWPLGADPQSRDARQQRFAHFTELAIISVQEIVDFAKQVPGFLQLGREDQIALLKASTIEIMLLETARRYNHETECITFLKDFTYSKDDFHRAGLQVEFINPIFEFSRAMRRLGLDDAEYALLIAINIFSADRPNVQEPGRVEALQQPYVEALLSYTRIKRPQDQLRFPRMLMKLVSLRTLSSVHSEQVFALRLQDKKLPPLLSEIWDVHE
Text: The ligand-binding domain (LBD) of a human LXRα and LXRβ cDNA was inserted adjacent to an yeast GAL4-transcription factor DNA-binding domain (DBD) of a mammal expression vector pBIND (Promega) to prepare an expression construct, thereby to produce pBIND-LXRα/GAL4 and pBIND-LXRβ/GAL4, respectively. PG5luc, a GAL4-responsive reporter construct, is a known vector that is available from Promega, and contains 5 copies of GAL4-response element located adjacent to the promoter as well as a luciferase reporter gene.
An LXRα/GAL4 or LXRβ/GAL4 hybrid and GAL4-responsive reporter vector pG5luc-stable-expression CHOK-1 cells were seeded under 5% CO2 wet atmosphere at 37° C., at 20,000 cells/well on a 96-well plate containing HAM-F12 medium containing 10% […] bovine fetal serum, 100 units/ml of penicillin G, and 100 μg/ml of streptomycin sulfate. […] By using Bright-Glo (Promega) as a luciferase assay substrate, and measuring the luminescence intensity with luminometer LB960 (Berthold Technologies), the effect of the test compound on the activation of luciferase transcription via the LXRα- or LXRβ-LBD was measured. At the same time, T0901317 (the compound of Example 12 of WO2000/54759) and WAY-254011 (compound 4 of Hu et al., Bioorg. Med. Chem. Lett., 18, pp. 54-59, 2008) were assessed as comparative compounds. […]

O=C(O)Cc1ccc(COc2cccc(-c3c(Cc4ccccc4)cnc4c(C(F)(F)F)cccc34)c2)cc1 [WAY-254011]
LXRβ-selective binding affinity (α/β ratio) (LXRβ (versus LXRα)): 1 to 5 | LXRβ-selective agonist effect (luciferase activity via LXRα- or LXRβ-LBD) [1]: not found to have an LXRβ-selective agonist effect
